Results published in patent US11918592B2, “Inhibitors of cyclin dependent kinase 7 (CDK7)” (Syros Pharmaceuticals, Inc., priority 2018, dated 2024).

Tests used:
[1] = biological target: CDK7/Cyclin H/MAT1 complex (Homo sapiens, UniProt P50613); experiment: CDK7 kinase inhibition assay (Caliper/LabChip EZ Reader)
[2] = test system: COV318 cells; experiment: Inhibition of cell proliferation, CyQUANT Direct, COV318; assay type: cell-based; details: Homo sapiens; COV318 ovarian cancer cells, 72-hour; read-out: COV 318 proliferation calculated IC50
[3] = test system: COV504 cells; experiment: Inhibition of cell proliferation, CyQUANT Direct, COV504; assay type: cell-based; details: Homo sapiens; COV504 ovarian cancer cells, 72-hour; read-out: COV 504 proliferation calculated IC50
[4] = test system: HCC70 cells; experiment: Inhibition of cell proliferation, CyQUANT Direct, HCC70; assay type: cell-based, human; details: Homo sapiens; HCC70 triple negative breast cancer cells, 72-hour; read-out: HCC 70 proliferation calculated IC50
[5] = biological target: CDK2/Cyclin E1 complex (Homo sapiens, UniProt P24941); experiment: CDK2 kinase inhibition assay (Caliper/LabChip EZ Reader)
Method: (§1) Compounds of the invention were assayed for inhibition of CDK7, CDK9, CDK12, and CDK2 activity at Biortus Biosciences (Jiangyin, Jiangsu Province, P.R. of China) using kinase assays for each CDK developed with a Caliper/LabChip EZ Reader (Perkin Elmer, Waltham, MA).
(§2) Furthermore, the CDK9 inhibition assay used CDK9/Cyclin T1 complex (8 nM) and “5-FAM-CDK9tide” peptide substrate (2 μM, synthesized fluorophore-labeled peptide with the following sequence: 5-FAM-GSRTPMY-NH2 (SEQ ID NO:2) where 5-FAM is defined above and NH2 signifies a C-terminal amide) with 10 mM MgCl2 in the buffer composition listed above. The CDK12 inhibition assay used CDK12 (aa686-1082)/Cyclin K complex (50 nM) and “5-FAM-CDK9tide” (2 μM) as defined above, with 2 mM MgCl2 in the buffer composition above. Additionally, the CDK2 inhibition assay used CDK2/Cyclin E1 complex (0.5 nM) and “5-FAM-CDK7tide” (2 μM) as defined above, with 2 mM MgCl2 in the buffer composition listed above.
(§3) The incubation period at 27° C. for each CDK inhibition assay was chosen such that the fraction of phosphorylated peptide product produced in each assay, relative to the total peptide concentration, was approximately 20% (±5%) for the uninhibited kinase (35 min. for CDK7, 35 min. for CDK2, 3 hr. for CDK12, 15 min. for CDK9).

[6] = test system: MB453 cells; experiment: Inhibition of cell proliferation, CyQUANT Direct, MB453; assay type: cell-based, human; details: Homo sapiens; MB453 triple negative breast cancer cells, 72-hour; read-out: MB 453 proliferation calculated IC50
[7] = biological target: CDK12 (aa686-1082)/Cyclin K complex (Homo sapiens, UniProt Q9NYV4); experiment: CDK12 kinase inhibition assay (Caliper/LabChip EZ Reader)
CDK12 (aa686-1082)/Cyclin K complex, sequence (Q9NYV4 686-1082): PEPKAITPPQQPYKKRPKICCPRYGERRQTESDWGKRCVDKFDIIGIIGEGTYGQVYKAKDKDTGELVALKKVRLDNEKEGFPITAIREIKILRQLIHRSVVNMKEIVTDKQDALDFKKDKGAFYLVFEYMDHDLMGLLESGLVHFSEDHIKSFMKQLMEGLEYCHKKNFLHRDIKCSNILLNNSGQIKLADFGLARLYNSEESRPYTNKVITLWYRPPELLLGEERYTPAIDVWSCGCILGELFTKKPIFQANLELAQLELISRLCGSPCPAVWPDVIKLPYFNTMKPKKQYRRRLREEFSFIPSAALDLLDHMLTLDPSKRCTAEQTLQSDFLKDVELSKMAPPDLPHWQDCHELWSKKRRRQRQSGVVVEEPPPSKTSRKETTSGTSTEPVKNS
CDK12 (aa686-1082)/Cyclin K complex, sequence (O75909 whole entry partner, the tested form may be a part): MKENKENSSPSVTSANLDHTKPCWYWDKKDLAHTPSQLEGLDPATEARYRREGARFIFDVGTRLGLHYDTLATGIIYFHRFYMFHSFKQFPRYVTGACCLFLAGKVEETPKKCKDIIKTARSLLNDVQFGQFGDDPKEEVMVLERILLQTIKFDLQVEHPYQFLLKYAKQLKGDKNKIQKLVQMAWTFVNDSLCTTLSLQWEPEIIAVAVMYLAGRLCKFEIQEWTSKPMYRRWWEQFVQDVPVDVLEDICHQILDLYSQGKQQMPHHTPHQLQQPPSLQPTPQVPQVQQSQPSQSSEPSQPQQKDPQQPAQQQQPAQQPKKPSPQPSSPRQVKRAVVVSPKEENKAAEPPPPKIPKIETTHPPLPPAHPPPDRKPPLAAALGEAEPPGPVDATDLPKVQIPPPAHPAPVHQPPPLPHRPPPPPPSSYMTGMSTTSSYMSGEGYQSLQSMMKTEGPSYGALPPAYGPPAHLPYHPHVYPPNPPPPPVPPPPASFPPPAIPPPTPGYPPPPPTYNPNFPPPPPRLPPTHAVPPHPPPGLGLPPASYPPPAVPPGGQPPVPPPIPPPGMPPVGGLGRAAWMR
Method: as §1, §2, §3

[8] = biological target: CDK9/Cyclin T1 complex (Homo sapiens, UniProt P50750); experiment: CDK9 kinase inhibition assay (Caliper/LabChip EZ Reader)
CDK9/Cyclin T1 complex, sequence (P50750 whole entry): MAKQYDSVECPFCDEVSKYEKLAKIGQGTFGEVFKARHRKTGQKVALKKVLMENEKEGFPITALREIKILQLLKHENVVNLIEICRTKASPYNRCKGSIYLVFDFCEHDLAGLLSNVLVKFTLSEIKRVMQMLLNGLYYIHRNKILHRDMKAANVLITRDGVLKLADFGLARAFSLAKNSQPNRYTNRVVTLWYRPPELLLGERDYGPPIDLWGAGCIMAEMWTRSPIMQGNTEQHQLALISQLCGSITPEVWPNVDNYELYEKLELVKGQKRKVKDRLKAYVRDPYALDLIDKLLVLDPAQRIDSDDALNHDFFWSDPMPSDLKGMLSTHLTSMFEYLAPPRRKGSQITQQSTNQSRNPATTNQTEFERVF
CDK9/Cyclin T1 complex, sequence (O60563 whole entry partner): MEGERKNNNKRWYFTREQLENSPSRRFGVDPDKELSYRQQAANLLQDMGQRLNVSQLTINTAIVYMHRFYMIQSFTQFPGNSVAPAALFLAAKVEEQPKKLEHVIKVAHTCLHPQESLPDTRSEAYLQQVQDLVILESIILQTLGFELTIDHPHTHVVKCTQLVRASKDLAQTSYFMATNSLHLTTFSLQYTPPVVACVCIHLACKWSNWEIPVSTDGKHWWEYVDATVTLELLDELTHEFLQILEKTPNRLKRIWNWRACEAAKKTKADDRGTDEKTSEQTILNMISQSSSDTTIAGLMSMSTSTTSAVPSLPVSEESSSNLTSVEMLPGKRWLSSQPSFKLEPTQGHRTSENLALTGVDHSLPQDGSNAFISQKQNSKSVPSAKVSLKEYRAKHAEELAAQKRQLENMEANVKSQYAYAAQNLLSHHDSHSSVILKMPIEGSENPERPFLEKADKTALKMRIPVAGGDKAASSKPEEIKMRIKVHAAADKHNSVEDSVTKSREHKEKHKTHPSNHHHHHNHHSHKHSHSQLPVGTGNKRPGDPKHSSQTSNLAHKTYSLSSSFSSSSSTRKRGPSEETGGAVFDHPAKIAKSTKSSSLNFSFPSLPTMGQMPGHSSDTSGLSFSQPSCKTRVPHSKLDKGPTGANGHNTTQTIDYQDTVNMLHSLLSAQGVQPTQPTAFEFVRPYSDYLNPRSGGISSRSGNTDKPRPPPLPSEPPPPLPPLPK

CDK7/Cyclin H/MAT1 complex, sequence (P50613 whole entry): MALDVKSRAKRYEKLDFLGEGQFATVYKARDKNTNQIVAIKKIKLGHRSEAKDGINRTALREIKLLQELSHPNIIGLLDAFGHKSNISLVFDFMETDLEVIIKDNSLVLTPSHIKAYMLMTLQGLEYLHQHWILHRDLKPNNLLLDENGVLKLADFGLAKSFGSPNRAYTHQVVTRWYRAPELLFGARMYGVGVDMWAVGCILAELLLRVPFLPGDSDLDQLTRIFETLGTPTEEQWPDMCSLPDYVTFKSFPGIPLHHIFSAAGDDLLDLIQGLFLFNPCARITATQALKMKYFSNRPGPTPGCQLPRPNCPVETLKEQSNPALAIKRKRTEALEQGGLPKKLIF
CDK7/Cyclin H/MAT1 complex, sequence (P51946 whole entry partner): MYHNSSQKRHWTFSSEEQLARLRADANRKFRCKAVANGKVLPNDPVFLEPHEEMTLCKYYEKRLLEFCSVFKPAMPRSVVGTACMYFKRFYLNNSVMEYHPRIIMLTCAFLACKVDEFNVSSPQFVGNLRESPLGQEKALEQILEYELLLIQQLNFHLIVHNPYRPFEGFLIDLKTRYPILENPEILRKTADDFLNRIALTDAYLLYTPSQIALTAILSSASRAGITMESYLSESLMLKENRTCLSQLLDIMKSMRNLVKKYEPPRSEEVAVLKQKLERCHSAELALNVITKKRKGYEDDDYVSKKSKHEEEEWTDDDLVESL
CDK7/Cyclin H/MAT1 complex, sequence (P51948 whole entry partner): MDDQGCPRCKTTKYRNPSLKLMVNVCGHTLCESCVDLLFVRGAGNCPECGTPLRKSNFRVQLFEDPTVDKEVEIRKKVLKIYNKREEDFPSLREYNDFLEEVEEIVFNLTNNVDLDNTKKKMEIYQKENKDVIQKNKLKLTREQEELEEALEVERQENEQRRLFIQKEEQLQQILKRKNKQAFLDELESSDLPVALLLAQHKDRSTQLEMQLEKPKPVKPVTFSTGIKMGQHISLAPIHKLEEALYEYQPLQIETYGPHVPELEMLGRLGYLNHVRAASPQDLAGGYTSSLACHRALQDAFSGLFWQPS

Row | SMILES | IC50 [1] | IC50 [2] | IC50 [3] | IC50 [4] | IC50 [5] | IC50 [6] | IC50 [7] | IC50 [8]
1 | Cc1noc(C)c1-c1ccc2c(-c3nc(N[C@H]4CCC[C@@H]4N4CC(F)(F)C4)ncc3C(F)(F)F)c[nH]c2n1 [Compound 166, N-[(1S,2S)-2-(3,3-difluoroazetidin-1-yl)cyclopentyl]-4-[6-(3,5-dimethylisoxazol-4-yl)-1H-pyrrolo[2,3-b]pyridin-3-yl]-5-(trifluoromethyl)pyrimidin-2-amine] | > 500 nM | > 2000 nM | > 2000 nM | > 2000 nM | > 500 nM | > 2000 nM | > 500 nM | > 500 nM
2 | N#Cc1ccc2c(-c3nc(N[C@H]4CCCC[C@@H]4N)ncc3C(F)(F)F)c[nH]c2c1 [Compound 100] | > 500 nM | > 2000 nM | > 2000 nM | > 2000 nM | > 500 nM | 500 to 2000 nM | > 500 nM | > 500 nM
3 | N[C@H]1CCC[C@@H]1Nc1ncc(C(F)(F)F)c(-c2c[nH]c3cc(-c4nccs4)ccc23)n1 [Compound 117, (1S,2S)—N1-[4-(6-thiazol-2-yl-1H-indol-3-yl)-5-(trifluoromethyl)pyrimidin-2-yl]-cyclopentane-1,2-diamine] | < 30 nM | > 2000 nM | 100 to 500 nM | 100 to 500 nM | > 500 nM | 100 to 500 nM | > 500 nM | > 500 nM
4 | N#Cc1ccc2c(-c3nc(N[C@H]4C[C@H]5CC[C@@H]4N5)ncc3C(F)(F)F)c[nH]c2c1 [Compound 114, 3-[2-[[(1S,2S,4R)-7-azabicyclo[2.2.1]heptan-3-yl]-amino]-5-(trifluoromethyl)pyrimidin-4-yl]-1H-indole-6-carbonitrile] | < 30 nM | 100 to 500 nM | < 100 nM | 100 to 500 nM | > 500 nM | < 100 nM | > 500 nM | > 500 nM
5 | N#Cc1ccc2c(-c3nc(N[C@@H]4CC[C@H]4N4CCOCC4)ncc3C(F)(F)F)c[nH]c2c1 [Compound 132] | > 500 nM | > 2000 nM | > 2000 nM | > 2000 nM | > 500 nM | > 2000 nM | > 500 nM | > 500 nM
6 | C[C@H]1C[C@H](Nc2ncc(C(F)(F)F)c(-c3c[nH]c4cc(C#N)ccc34)n2)CN1 [Compound 104] | 30 to 100 nM | > 2000 nM | 100 to 500 nM | 500 to 2000 nM | > 500 nM | 100 to 500 nM | > 500 nM | > 500 nM
7 | CC(=O)N[C@H]1CCC[C@@H]1Nc1ncc(C(F)(F)F)c(-c2c[nH]c3cc(C#N)ccc23)n1 [Compound 120, N-[(1S,2S)-2-[[4-(6-cyano-1H-indol-3-yl)-5-(trifluoromethyl)pyrimidin-2-yl]-amino]cyclopentyl]-acetamide] | > 500 nM | > 2000 nM | > 2000 nM | > 2000 nM | > 500 nM | > 2000 nM | > 500 nM | > 500 nM
8 | Cc1noc(C)c1-c1ccc2c(-c3nc(N[C@H]4CCC[C@@H]4N4CC(O)C4)ncc3C(F)(F)F)c[nH]c2n1 [Compound 159, 1-[(1S,2S)-2-[[4-[6-(3,5-dimethylisoxazol-4-yl)-1H-pyrrolo[2,3-b]pyridin-3-yl]-5-(trifluoromethyl)pyrimidin-2-yl]amino]cyclopentyl] azetidin-3-ol] | < 30 nM | > 2000 nM | 100 to 500 nM | < 100 nM | > 500 nM | 100 to 500 nM | > 500 nM | > 500 nM
9 | N#Cc1ccc2c(-c3nc(N[C@H]4Cc5ccccc5[C@@H]4N)ncc3C(F)(F)F)c[nH]c2c1 [Compound 119, 3-[2-[[(1S,2S)-1-aminoindan-2-yl]-amino]-5-(trifluoromethyl)pyrimidin-4-yl]-1H-indole-6-carbonitrile] | < 30 nM | > 2000 nM | 100 to 500 nM | 100 to 500 nM | > 500 nM | 100 to 500 nM | > 500 nM | > 500 nM
10 | Cc1noc(C)c1-c1ccc2c(-c3nc(N[C@H]4CCC[C@H]4N4CC(O)C4)ncc3C(F)(F)F)c[nH]c2n1 [Compound 163, 1-[(1R,2S)-2-[[4-[6-(3,5-dimethylisoxazol-4-yl)-1H-pyrrolo[2,3-b]pyridin-3-yl]-5-(trifluoromethyl)pyrimidin-2-yl]amino]cyclopentyl]azetidin-3-ol] | 30 to 100 nM | > 2000 nM | > 2000 nM | > 2000 nM | > 500 nM | 500 to 2000 nM | > 500 nM | > 500 nM
11 | N#Cc1ccc2c(-c3nc(N[C@H]4CC[C@@H]4N4CCOCC4)ncc3C(F)(F)F)c[nH]c2c1 [Compound 130] | 100 to 500 nM | > 2000 nM | > 2000 nM | > 2000 nM | > 500 nM | > 2000 nM | > 500 nM | > 500 nM
12 | N[C@H]1CCC[C@@H]1Nc1ncc(C(F)(F)F)c(-c2c[nH]c3c(Cl)c(O)ccc23)n1 [Compound 168, 3-[2-[[(1S,2S)-2-aminocyclopentyl]amino]-5-(trifluoromethyl)pyrimidin-4-yl]-7-chloro-1H-indol-6-ol] | < 30 nM | 100 to 500 nM | < 100 nM | 100 to 500 nM | > 500 nM | < 100 nM | > 500 nM | > 500 nM
13 | CCN[C@H]1CCC[C@@H]1Nc1ncc(C(F)(F)F)c(-c2c[nH]c3cc(C#N)ccc23)n1 [Compound 128, 3-[2-[[(1S,2S)-2-(ethylamino)cyclopentyl]-amino]-5-(trifluoromethyl)pyrimidin-4-yl]-1H-indole-6-carbonitrile] | < 30 nM | 100 to 500 nM | < 100 nM | < 100 nM | > 500 nM | < 100 nM | > 500 nM | > 500 nM
14 | COCCNC1CCC[C@@H]1Nc1ncc(C(F)(F)F)c(-c2c[nH]c3nc(-c4c(C)noc4C)ccc23)n1 (stereo in doubt) [Compound 152, (1S, 2R)—N1-[4-[6-(3,5-dimethylisoxazol-4-yl)-1H-pyrrolo [2,3-b]pyridin-3-yl]-5-(trifluoromethyl)pyrimidin-2-yl]-N2-(2-methoxyethyl)cyclopentane-1,2-diamine] | < 30 nM | 500 to 2000 nM | 100 to 500 nM | 100 to 500 nM | > 500 nM | 100 to 500 nM | > 500 nM | > 500 nM
15 | Cc1noc(C)c1-c1ccc2c(-c3nc(N[C@H]4CC[C@@H]4N)ncc3C(F)(F)F)c[nH]c2n1 [Compound 129, (1S,2S)—N2-[4-[6-(3,5-dimethylisoxazol-4-yl)-1H-pyrrolo[2,3-b]pyridin-3-yl]-5-(trifluoromethyl)pyrimidin-2-yl]-cyclobutane-1,2-diamine] | < 30 nM | 100 to 500 nM | < 100 nM | 100 to 500 nM | > 500 nM | < 100 nM | > 500 nM | > 500 nM
